For assay [1], the target named is T1, A. baumannii MsbA (Acinetobacter baumannii, UniProt A0A0B9X4I2).
T1 sequence (A0A0B9X4I2 1-575): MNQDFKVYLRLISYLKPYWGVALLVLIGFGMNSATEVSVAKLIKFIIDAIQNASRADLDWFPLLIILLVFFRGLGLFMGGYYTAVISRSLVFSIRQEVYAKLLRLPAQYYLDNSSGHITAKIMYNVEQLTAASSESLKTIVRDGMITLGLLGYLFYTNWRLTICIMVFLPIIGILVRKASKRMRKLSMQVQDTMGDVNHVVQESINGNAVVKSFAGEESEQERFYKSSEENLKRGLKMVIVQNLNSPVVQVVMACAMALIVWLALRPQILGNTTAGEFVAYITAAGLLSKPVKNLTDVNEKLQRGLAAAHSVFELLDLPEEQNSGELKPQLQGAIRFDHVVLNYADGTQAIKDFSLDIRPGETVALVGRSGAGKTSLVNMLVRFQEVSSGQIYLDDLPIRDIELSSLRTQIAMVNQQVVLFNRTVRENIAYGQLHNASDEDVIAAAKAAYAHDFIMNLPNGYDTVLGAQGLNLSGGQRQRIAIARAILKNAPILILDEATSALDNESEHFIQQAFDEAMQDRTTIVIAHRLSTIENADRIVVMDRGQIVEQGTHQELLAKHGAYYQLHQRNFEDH
Conditions: POPG nanodiscs, no TBT1.

Assay [2] deals with T1, A. baumannii MsbA. In words: ATPase activity assay. The class given is biochemical. The following applies: stimulation of ATPase activity; allosteric, central substrate (LPS) binding site.

In the case of `Nc1ncnc2c1ncn2[C@@H]1O[C@H](COP(=O)(O)OP(=O)(O)OP(=O)(O)O)[C@@H](O)[C@H]1O` [ATP], the “ATPase activity, Michaelis-Menten kinetics” value in assay [1] is “ATPase activity of A. baumannii MsbA in nanodiscs, measured at varying ATP and TBT1 concentrations”.
On to `O=C(Nc1sc2c(c1C(=O)O)CCCC2)c1ccc(Cl)cc1` [TBT1], for which, in assay [2], the EC50 is about 13 µM.

Source of the values: article PMC9109178 (Science (New York, N.Y.), 2021).
